pKi: −log10 of the molar value. Values after ≈ are worked out from the molar mass of the structure shown. Where two headings read alike, the source gives them in different places.
Legend:
[1] = tested on: HIV-1 (RF) in MT-2 cells; assay: microbe, parasite or virus in culture; format: cell-based
Experimental: DNA Plasmids and in vitro RNA transcripts:
Plasmid pDAB 72 containing both gag and pol sequences of BH10 (bp 113-1816) cloned into PTZ 19R was prepared according to Erickson-Viitanen et al. AIDS Research and Human Retroviruses 1989, 5, 577. The plasmid was linearized with Bam HI prior to the generation of in vitro RNA transcripts using the Riboprobe Gemini system II kit (Promega) with T7 RNA polymerase. Synthesized RNA was purified by treatment with RNase free DNAse (Promega), phenol-chloroform extraction, and ethanol precipitation. RNA transcripts were dissolved in water, and stored at −70° C. The concentration of RNA was determined from the A260.
Biotinylated capture probes were purified by HPLC after synthesis on an Applied Biosystems (Foster City, Calif.) DNA synthesizer by addition of biotin to the 5′ terminal end of the oligonucleotide, using the biotin-phosphoramidite reagent of Cocuzza, Tet. Lett. 1989, 30, 6287. The gag biotinylated capture probe (5-biotin-[…] 3′) was complementary to nucleotides 889-912 of HXB2 and the pol biotinylated capture probe (5′-biotin-[…] 3′) was complementary to nucleotides 2374-2395 of HXB2. Alkaline phosphatase conjugated oligonucleotides used as reporter probes were prepared by Syngene (San Diego, Calif.). The pol reporter probe (5′ […] 3′) was complementary to nucleotides 2403-2425 of HXB2. The gag reporter probe (5′ […] 3′) was complementary to nucleotides 950-973 of HXB2. All nucleotide positions are those of the GenBank Genetic Sequence Data Bank as accessed through the Genetics Computer Group Sequence Analysis Software Package (Devereau Nucleic Acids Research 1984, 12, 387). The reporter probes were prepared as 0.5μM stocks in 2× SSC (0.3M NaCl, 0.03M sodium citrate), 0.05M Tris pH 8.8, 1 mg/mL BSA. The biotinylated capture probes were prepared as 10 μM stocks in water.
Streptavidin coated plates:
Nunc-immunomodule microtiter plate strips were coated by addition of 200 μL of streptavidin (30 ug/mL, Scripps, La Jolla, Calif.) in freshly prepared 10 mM sodium carbonate (pH 9.6). Plates were incubated overnight at 4° C. Streptavidin solution was aspirated from the wells and a blocking buffer composed of phosphate buffered saline (PBS), 20 mg/mL bovine serum albumin (crystalline, nuclease and protease free, Calbiochem) and 100 mg/mL lactose (Sigma) was added to the plates for 3 hrs at room temperature. Blocking buffer was removed from the wells, which were allowed to dry overnight at room temperature and subsequently stored at 4° C. in zip lock bags with desiccant. For the majority of the compound evaluation experiments, streptavidin coated plates were obtained from Du Pont Biotechnology Systems (Boston, Mass.).
MT-2, CEM, and H9 cells were maintained in RPMI 1640 supplemented with 5% fetal calf serum (FCS), 2 mM L-glutamine and 50 μg/mL gentamycin, all from Gibco. Laboratory strains of HIV-1 (RF, MN and IIIB) were propagated in H9 cells in the same medium. Virus stocks were prepared approximately 1 month after acute infection of H9 cells by clarification of the tissue culture medium and storage of aliquots at −70° C. […] Each aliquot of virus stock used for infection was thawed only once. In some cases, infected H9 cells were shifted to Dulbecco's modified Eagle's medium 3-10 days before collection of virus in order to generate virus stocks in medium with low biotin content. Clinical isolates of HIV that had been passaged once in MT-2 cells were used to infect fresh MT-2 cells in RPMI medium. Three days after infection, cells were pelleted, resuspended and culture continued in Dulbecco's modified Eagle's medium as above. Virus stocks of clinical isolates were prepaid 10-15 days after infection when cytopathic effects were apparent in the culture.

[2] = biological target: single-chain tethered dimer of HIV protease (Human immunodeficiency virus 1, UniProt P04585); assay: biochemical; format: biochemical; set-up: fused on or other part: A second copy of the same protease unit is joined to the first by a short peptide tether, giving one polypeptide
[3] = Human immunodeficiency virus 1, MT2, 48 h, Table 2d, HIV RNA assay, read-out: IC90
[4] = read-out: HPLC K1, Table 2d, HIV protease inhibition, HPLC method
[5] = Table 2d, class symbols, read-out: HPLC K1
[6] = Table 2d, HIV protease inhibition, HPLC method, read-out: HPLC K1
[7] = Human immunodeficiency virus 1, MT2, 48 h, Table 2d, class symbols, read-out: IC90
[8] = read-out: HPLC K1, Table 2d, class symbols

O=C1N(Cc2cccc(C(O)C(F)(F)F)c2)C(Cc2ccccc2)C(O)C(O)C(Cc2ccccc2)N1Cc1cccc(C(O)C(F)(F)F)c1 (stereo not drawn) [Example 15XI]
IC90 [1, 3]: < 10 µg/mL | pKi [2, 4]: > 8.00

CN(C)S(=O)(=O)n1ccnc1-c1cccc(CN2C(=O)N(Cc3cccc(-c4nccn4S(=O)(=O)N(C)C)c3)C(Cc3ccccc3)C(O)C(O)C2Cc2ccccc2)c1 (stereo not drawn) [Example 15BM]
IC90 [1, 3]: < 10 µg/mL | pKi [2, 4]: 6.00 to 8.00

CN(C)C(=O)c1cccc(CN2C(=O)N(Cc3cccc(C(=O)N(C)C)c3)C(Cc3ccccc3)C(O)C(O)C2Cc2ccccc2)c1 (stereo not drawn) [11S]
IC90 ([1]; Table 2d, class symbols): +++ (+++=<10 μg/mL) | pKi [2, 5]: 6.00 to 8.00

O=C1N(Cc2ccc3ccccc3c2)C(Cc2ccccc2)C(O)C(O)C(Cc2ccccc2)N1Cc1ccc2[nH]nnc2c1 (stereo not drawn) [15DO]
IC90 ([1]; Table 2d, HIV RNA assay): +++ (+++=<10 μg/mL) | pKi [2, 6]: > 8.00

N#Cc1cccc(CN2C(=O)N(Cc3cccc(-c4cc[nH]n4)c3)C(Cc3ccccc3)C(O)C(O)C2Cc2ccccc2)c1 (stereo not drawn) [Example 15BV]
IC90 [1, 3]: < 10 µg/mL | pKi [2, 4]: > 8.00

CCNC(=O)c1cccc(CN2C(=O)N(Cc3cccc(C(=O)OC)c3)C(Cc3ccccc3)C(O)C(O)C2Cc2ccccc2)c1 (stereo not drawn) [11U]
IC90 [1, 7]: < 10 µg/mL | pKi [2, 8]: > 8.00

O=C1N(Cc2ccc3c(c2)NS(=O)(=O)N3)C(Cc2ccccc2)C(O)C(O)C(Cc2ccccc2)N1Cc1ccc2c(c1)NS(=O)(=O)N2 (stereo not drawn) [15CW]
IC90 ([1]; Table 2d, HIV RNA assay): ++ (++=10 to 100 μg/mL) | pKi [2, 6]: > 8.00

CCCCN1[C@H](Cc2ccccc2)[C@H](O)[C@@H](O)[C@@H](Cc2ccccc2)N(CCCC)P1(=O)Oc1ccccc1 (stereo partly drawn) [Example 28D]
IC90 ([1]; Table 2r): +++ (+++=<10 μg/mL) | pKi ([2]; Table 2r, read-out: Ki HPLC): 6.00 to 8.00

O=C1N(Cc2cccc(OCc3ccccc3)c2)C(Cc2ccccc2)C(O)C(O)C(Cc2ccccc2)N1Cc1cccc([N+](=O)[O-])c1 (stereo not drawn) [11P]
IC90 [1, 7]: < 10 µg/mL | pKi [2, 8]: > 8.00

CN(C)CCCCN1C(=O)N(CCCCN(C)C)C(Cc2ccccc2)C(O)C(O)C1Cc1ccccc1.Cl.Cl (stereo not drawn) [15FH]
IC90 ([1]; HIV RNA assay, HIV-1 infected MT-2 cells, Table 2d): ++/+ (The ++/+ is used in the cases where an IC90 was determined to be >50 μg/mL) | pKi ([2]; HIV protease inhibition, HPLC method, Table 2d, read-out: HPLC K1): 6.00 to 8.00

O=C1N(Cc2ccc3[nH]cnc3c2)C(Cc2ccccc2)C(O)C(O)C(Cc2ccccc2)N1Cc1ccc2[nH]cnc2c1 (stereo not drawn) [15CS]
IC90 ([1]; Table 2d, HIV RNA assay): ++ (++=10 to 100 μg/mL) | pKi [2, 6]: 6.00 to 8.00

O=C1NC(Cc2ccccc2)C(O)C(O)C(Cc2ccccc2)N1Cc1cccc(-c2cc[nH]n2)c1 (stereo not drawn) [Example 15BX]
IC90 [1, 3]: < 10 µg/mL | pKi [2, 4]: > 8.00

CN(C)CC(=O)Nc1cccc(CN2C(=O)N(Cc3cccc(NC(=O)CN(C)C)c3)C(Cc3ccccc3)C(O)C(O)C2Cc2ccccc2)c1.Cl.Cl (stereo not drawn) [15N]
IC90 ([1]; Table 2d, class symbols): +++ (+++=<10 μg/mL) | pKi [2, 5]: > 8.00

CC(O)c1cccc(CN2C(=O)N(Cc3cccc(C(C)O)c3)C(Cc3ccccc3)C(O)C(O)C2Cc2ccccc2)c1 (stereo not drawn) [Example 9H]
IC90 [1, 7]: < 10 µg/mL | pKi [2, 8]: 6.00 to 8.00

O=C1N(Cc2ccc3c(c2)CCNC3)C(Cc2ccccc2)C(O)C(O)C(Cc2ccccc2)N1Cc1ccc2c(c1)CCNC2 (stereo not drawn) [Example 13T]
IC90 ([1]; Table 2d, class symbols): + (+=>100 μg/mL) | pKi [2, 5]: 6.00 to 8.00

O=C1N(Cc2cccc(CO)c2)C(Cc2ccccc2)C(O)C(O)C(Cc2ccccc2)N1Cc1cccc(-c2cc[nH]n2)c1 (stereo not drawn) [Example 15BQ]
IC90 [1, 3]: < 10 µg/mL | pKi [2, 4]: > 8.00

O=C1N(Cc2ccccc2)C(Cc2ccccc2)C(O)C(O)C(Cc2ccccc2)N1Cc1ccc2[nH]nnc2c1 (stereo not drawn) [15DN]
IC90 ([1]; Table 2d, HIV RNA assay): +++ (+++=<10 μg/mL) | pKi [2, 6]: > 8.00

Cc1cncc(O)c1CN1C(=O)N(Cc2c(C)cncc2O)C(Cc2ccccc2)C(O)C(O)C1Cc1ccccc1 (stereo not drawn) [Example 14K]
IC90 ([1]; Table 2d, class symbols): + (+=>100 μg/mL) | pKi [2, 5]: 6.00 to 8.00

CN(C)CCNC(=O)c1cccc(CN2C(=O)N(CC3CC3)C(Cc3ccccc3)C(O)C(O)C2Cc2ccccc2)c1 (stereo not drawn) [15YA]
IC90 ([1]; Table 2d, HIV RNA assay): +++ (+++=<10 μg/mL) | pKi [2, 6]: > 8.00

NCCCCCN1C(=O)N(CCCCCN)C(Cc2ccccc2)C(O)C(O)C1Cc1ccccc1 (stereo not drawn) [15EP]
IC90 [1, 3]: > 50 µg/mL | pKi [2, 4]: < 6.00

O=C1N(Cc2ccc(CO)cc2)C(Cc2ccccc2)C(O)C(O)C(Cc2ccccc2)N1Cc1cccnc1 (stereo not drawn) [Example 15XE]
IC90 [1, 3]: < 10 µg/mL | pKi [2, 4]: > 8.00

CSCCCCCN1C(=O)N(CCCCCO)C(Cc2ccccc2)C(O)C(O)C1Cc1ccccc1 (stereo not drawn) [Example 15VJ]
IC90 [1, 7]: < 10 µg/mL | pKi [2, 8]: 6.00 to 8.00

CNCc1cccc(CN2C(=O)N(Cc3cccc(CNC)c3)C(Cc3ccccc3)C(O)C(O)C2Cc2ccccc2)c1 (stereo not drawn) [Example 15XC]
IC90 [1, 3]: < 10 µg/mL | pKi [2, 4]: 6.00 to 8.00

O=C1N(Cc2cccc(CNO)c2)C(Cc2ccccc2)C(O)C(O)C(Cc2ccccc2)N1Cc1cccc(CNO)c1 (stereo not drawn) [Example 9B]
IC90 [1, 7]: < 10 µg/mL | pKi [2, 8]: 6.00 to 8.00

CC(=NO)c1cccc(CN2C(=O)N(Cc3cccc(C(C)=NO)c3)C(Cc3ccc(F)cc3)C(O)C(O)C2Cc2ccc(F)cc2)c1 (stereo not drawn) [20U]
IC90 ([1]; Human immunodeficiency virus 1, MT2, Table 2i, read-out: IC90): < 10 µg/mL | pKi ([2]; read-out: HPLC Ki, Table 2i): > 8.00

O=C1N(CCCCCO)C(Cc2ccccc2)C(O)C(O)C(Cc2ccccc2)N1Cc1cccc(CO)c1 (stereo not drawn) [Example 15WE]
IC90 [1, 7]: < 10 µg/mL | pKi [2, 8]: > 8.00

COC(=O)Cc1cccc(CN2C(=O)N(Cc3cccc(CC(=O)OC)c3)C(Cc3ccccc3)C(O)C(O)C2Cc2ccccc2)c1 (stereo not drawn) [15DW]
IC90 ([1]; Table 2d, HIV RNA assay): +++ (+++=<10 μg/mL) | pKi [2, 6]: > 8.00

C=CCN1C(=O)N(CC=C)[C@H](Cc2ccccc2)[C@@H](O)[C@H](O)[C@H]1Cc1ccccc1 [Example 13N]
IC90 ([1]; Human immunodeficiency virus 1, MT2, 48 h): 10 to 100 µg/mL (≈ 24.6 to 246 µM) | pKi [2, 8]: < 6.00

CC(O)c1cccc(CN2C(=O)N(Cc3cccc(Br)c3)C(Cc3ccccc3)C(O)C(O)C2Cc2ccccc2)c1 (stereo not drawn) [Example 9R]
IC90 [1, 7]: < 10 µg/mL | pKi [2, 8]: 6.00 to 8.00

O=C1N(Cc2cccc(O)c2)C(Cc2ccccc2)C(O)C(O)C(Cc2ccccc2)N1Cc1ccccn1 (stereo not drawn) [10Q]
IC90 [1, 7]: < 10 µg/mL | pKi [2, 8]: 6.00 to 8.00

O=C1N(Cc2cccc(OCCO)c2)C(Cc2ccccc2)C(O)C(O)C(Cc2ccccc2)N1Cc1cccc(OCCO)c1 (stereo not drawn) [10Y]
IC90 [1, 7]: < 10 µg/mL | pKi [2, 8]: > 8.00

O=C1N(Cc2ccc(C(O)CO)cc2)C(Cc2ccccc2)C(O)C(O)C(Cc2ccccc2)N1Cc1ccc(C(O)CO)cc1 (stereo not drawn) [11L]
IC90 [1, 7]: < 10 µg/mL | pKi [2, 8]: > 8.00

NCCCCCCN1C(=O)N(Cc2ccccc2)C(Cc2ccccc2)C(O)C(O)C1Cc1ccccc1 (stereo not drawn) [Example 12B]
IC90 [1, 7]: > 100 µg/mL | pKi [2, 8]: 6.00 to 8.00
